Test results taken from US7138361B2, “Herbicidal heterocycles” (E. I. du Pont de Nemours and Company, priority 2000, dated 2006).

What was measured:
Type in all cases: in vivo
[1] = tested on: Surinam grass (Brachiaria decumbens); assay: Test B postemergence; settings: 13 to 15 days
Summary of the method: (§1)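 Post-treatment, species sat 13–15 days under greenhouse conditions before visual scoring against controls, 0 (no effect) through 100 (complete control). Application preemergence to sown seeds or postemergence at 1- to 4-leaf stage, using a non-phytotoxic solvent/surfactant formulation.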

[2] = tested on: barnyardgrass (Echinochloa crus-galli); assay: Test B postemergence; settings: 13 to 15 days
Summary of the method: as §1

[3] = tested on: blackgrass (Alopecurus myosuroides); assay: Test B postemergence; settings: 13 to 15 days
Summary of the method: as §1

[4] = tested on: cocklebur (Xanthium strumarium); assay: Test B postemergence; settings: 13 to 15 days
Summary of the method: as §1

corn (Zea mays) [5] = assay: Test B postemergence; settings: 13 to 15 days
Summary of the method: as §1

[6] = tested on: crabgrass (Digitaria sanguinalis); assay: Test B postemergence; settings: 13 to 15 days
Summary of the method: as §1

[7] = tested on: giant foxtail (Setaria faberii); assay: Test B postemergence; settings: 13 to 15 days
Summary of the method: as §1

[8] = tested on: lambsquarters (Chenopodium album); assay: Test B postemergence; settings: Rate 500 g/ha, scale 0 to 100, 0 is no effect, 100 is complete control, 13 to 15 days
Summary of the method: as §1

[9] = tested on: morning glory (Ipomoea hederacea); assay: Test B postemergence; settings: Rate 500 g/ha, scale 0 to 100, 0 is no effect, 100 is complete control, 13 to 15 days
Summary of the method: as §1

[10] = tested on: pigweed (Amaranthus retroflexus); assay: Test B postemergence; settings: Rate 500 g/ha, scale 0 to 100, 0 is no effect, 100 is complete control, 13 to 15 days
Summary of the method: as §1

[11] = tested on: velvetleaf (Abutilon theophrasti); assay: Test B postemergence; settings: Rate 500 g/ha, scale 0 to 100, 0 is no effect, 100 is complete control, 13 to 15 days
Summary of the method: as §1

[12] = tested on: wheat (Triticum aestivum); assay: Test B postemergence; settings: Rate 500 g/ha, scale 0 to 100, 0 is no effect, 100 is complete control, 13 to 15 days
Summary of the method: as §1

wild oat (Avena fatua) = assay: Test B postemergence; settings: Rate 500 g/ha, scale 0 to 100, 0 is no effect, 100 is complete control, 13 to 15 days
Summary of the method: as §1

[13] = tested on: Surinam grass (Brachiaria decumbens); assay: Test B preemergence
Summary of the method: as §1

[14] = tested on: barnyardgrass (Echinochloa crus-galli); assay: Test B preemergence
Summary of the method: as §1

[15] = tested on: cocklebur (Xanthium strumarium); assay: Test B preemergence
Summary of the method: as §1

corn (Zea mays) [16] = assay: Test B preemergence
Summary of the method: as §1

[17] = tested on: crabgrass (Digitaria sanguinalis); assay: Test B preemergence
Summary of the method: as §1

[18] = tested on: giant foxtail (Setaria faberii); assay: Test B preemergence
Summary of the method: as §1

[19] = tested on: lambsquarters (Chenopodium album); assay: Test B preemergence
Summary of the method: as §1

[20] = tested on: morning glory (Ipomoea hederacea); assay: Test B preemergence
Summary of the method: as §1

[21] = tested on: pigweed (Amaranthus retroflexus); assay: Test B preemergence
Summary of the method: as §1

rice (Oryza saliva) [22] = assay: Test B preemergence
Summary of the method: as §1

[23] = tested on: velvetleaf (Abutilon theophrasti); assay: Test B preemergence
Summary of the method: as §1

[24] = tested on: barnyardgrass (Echinochloa crus-galli); assay: Test C flooded paddy test; settings: for Barnyardgrass plant response rating: Flooded Paddy, scale 0 to 100, 0 no effect, 100 complete control; for Plant response rating, Barnyardgrass: flooded paddy test, scale 0 to 100 (0 no effect, 100 complete control)
Summary of the method: (§2)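 Ratings come from visual comparison with control plants after 12 to 14 days in the greenhouse. Each species was at the 2-leaf stage when the flooded paddy was treated. Scores run from 0, meaning no effect, to 100, meaning complete control.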

[25] = tested on: duck salad (Heteranthera limosa); assay: Test C flooded paddy test; settings: for Ducksalad plant response rating: Flooded Paddy, scale 0 to 100, 0 no effect, 100 complete control; for Plant response rating, Ducksalad: flooded paddy test, scale 0 to 100 (0 no effect, 100 complete control)
Summary of the method: as §2

rice (Oryza saliva) [26] = assay: Test C flooded paddy test; settings: for Rice plant response rating: Flooded Paddy, scale 0 to 100, 0 no effect, 100 complete control; for Plant response rating, Rice: flooded paddy test, scale 0 to 100 (0 no effect, 100 complete control)
Summary of the method: as §2

[27] = tested on: smallflower flatsedge (Cyperus difformis); assay: Test C flooded paddy test; settings: for Flatsedge plant response rating: Flooded Paddy, scale 0 to 100, 0 no effect, 100 complete control; for Plant response rating, Flatsedge: flooded paddy test, scale 0 to 100 (0 no effect, 100 complete control)
Summary of the method: as §2

[28] = Rate 125 g/ha, scale 0 (no effect) to 100 (complete control)
[29] = Rate 500 g/ha, scale 0 to 100, 0 is no effect, 100 is complete control
[30] = Preemergence, Rate 500 g/ha, scale 0 to 100, 0 no effect, 100 complete control
[31] = preemergence, Rate 125 g/ha, scale of 0 to 100 where 0 is no effect and 100 is complete control, 13 to 15 days

Cc1ccc(N2CCC(n3ccc(C(C)(C)C)n3)C2=O)cc1OCCI (stereo not shown) [Compound 108]
Plant response rating, Surinam grass [1, 28]: 0 | Plant response rating, Surinam grass [1, 29]: 20 | Plant response rating, Barnyardgrass [2, 28]: 0 | Plant response rating, Barnyardgrass [2, 29]: 0 | Plant response rating, Blackgrass [3, 28]: 0 | Plant response rating, Blackgrass [3, 29]: 0 | Plant response rating, Cocklebur [4, 28]: 20 | Plant response rating, Cocklebur [4, 29]: 40 | Plant response rating, Corn (corn (Zea mays) [5]; [28]): 0 | Plant response rating, Corn (corn (Zea mays) [5]; [29]): 0 | Plant response rating, Crabgrass [6, 28]: 0 | Plant response rating, Crabgrass [6, 29]: 0 | Plant response rating, Foxtail, Giant [7, 28]: 0 | Plant response rating, Foxtail, Giant [7, 29]: 0 | Plant response rating, Lambsquarters [8]: 80 | Plant response rating, Morningglory [9]: 70 | Plant response rating, Pigweed [10]: 40 | Plant response rating, Velvetleaf [11]: 60 | Plant response rating, Wheat [12]: 0 | Plant response rating, Wild Oat (wild oat (Avena fatua)): 0 | Plant response rating, Surinam grass [13, 30]: 30 | Plant response rating, Surinam grass [13, 31]: 0 | Plant response rating, Barnyardgrass [14, 30]: 0 | Plant response rating, Barnyardgrass [14, 31]: 0 | Plant response rating, Cocklebur [15, 30]: 0 | Plant response rating, Cocklebur [15, 31]: 0 | Plant response rating, Corn (corn (Zea mays) [16]; [30]): 0 | Plant response rating, Corn (corn (Zea mays) [16]; [31]): 0 | Plant response rating, Crabgrass [17, 30]: 0 | Plant response rating, Crabgrass [17, 31]: 0 | Plant response rating, Foxtail, Giant [18, 30]: 20 | Plant response rating, Foxtail, Giant [18, 31]: 0 | Plant response rating, Lambsquarters [19, 30]: 100 | Plant response rating, Lambsquarters [19, 31]: 100 | Plant response rating, Morningglory [20, 30]: 0 | Plant response rating, Morningglory [20, 31]: 0 | Plant response rating, Pigweed [21, 30]: 60 | Plant response rating, Pigweed [21, 31]: 20 | Plant response rating, Rice (rice (Oryza saliva) [22]; [30]): 0 | Plant response rating, Rice (rice (Oryza saliva) [22]; [31]): 0 | Plant response rating, Velvetleaf [23, 30]: 0 | Plant response rating, Velvetleaf [23, 31]: 0 | Barnyardgrass plant response rating ([24]; Rate 250 g/ha): 0 | Barnyardgrass plant response rating ([24]; Rate 500 g/ha): 20 | Plant response rating, Barnyardgrass ([24]; Rate 62 g/ha): 0 | Plant response rating, Barnyardgrass ([24]; Rate 125 g/ha): 0 | Ducksalad plant response rating ([25]; Rate 250 g/ha): 0 | Ducksalad plant response rating ([25]; Rate 500 g/ha): 0 | Plant response rating, Ducksalad ([25]; Rate 62 g/ha): 0 | Plant response rating, Ducksalad ([25]; Rate 125 g/ha): 0 | Rice plant response rating (rice (Oryza saliva) [26]; Rate 250 g/ha): 0 | Rice plant response rating (rice (Oryza saliva) [26]; Rate 500 g/ha): 0 | Plant response rating, Rice (rice (Oryza saliva) [26]; Rate 62 g/ha): 0 | Plant response rating, Rice (rice (Oryza saliva) [26]; Rate 125 g/ha): 0 | Flatsedge plant response rating ([27]; Rate 250 g/ha): 30 | Flatsedge plant response rating ([27]; Rate 500 g/ha): 90 | Plant response rating, Flatsedge ([27]; Rate 62 g/ha): 0 | Plant response rating, Flatsedge ([27]; Rate 125 g/ha): 0
